Laboratory results from US20100298141A1, “SUBSTITUTED PYRIDINE N-OXIDE HERBICIDES” (E. I. DU PONT DE NEMOURS AND COMPANY, priority 2007, published 2010).

Legend:
[1] = system: barnyardgrass; experiment: Test A pre-/postemergence greenhouse test; format: in vivo, Echinochloa crus-galli; conditions: for Plant response rating, Barnyardgrass: 0 to 100 scale where 0 is no effect and 100 is complete control; for Barnyardgrass plant response rating: 0 to 100 scale
In short: (§1)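 Seeds sown in a loam soil–sand blend got a preemergence directed soil spray of compound in a non-phytotoxic solvent mixture containing surfactant. Postemergence sprays of the same formulation went at the same time onto plants 2–10 cm tall at the one- to two-leaf stage. Injury was scored visually against untreated controls after about ten days in the greenhouse.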

[2] = system: crabgrass; experiment: Test A pre-/postemergence greenhouse test; format: in vivo, Digitaria sanguinalis; conditions: for Plant response rating, Crabgrass, Large: 0 to 100 scale where 0 is no effect and 100 is complete control; for Crabgrass, Large plant response rating: 0 to 100 scale
In short: as §1

[3] = system: wheat; experiment: Test A pre-/postemergence greenhouse test; format: in vivo, Triticum aestivum; conditions: for Plant response rating, Wheat: 0 to 100 scale where 0 is no effect and 100 is complete control; for Wheat plant response rating: 0 to 100 scale
In short: as §1

[4] = system: corn; experiment: Test A pre-/postemergence greenhouse test; format: in vivo, Zea mays; conditions: for Plant response rating, Corn: 0 to 100 scale where 0 is no effect and 100 is complete control; for Corn plant response rating: 0 to 100 scale
In short: as §1

[5] = system: Italian ryegrass; experiment: Test C pre-/postemergence test; format: in vivo, Lolium multiflorum
In short: (§2)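 Compounds in a non-phytotoxic solvent with surfactant applied preemergence to seeded pots and, at the same time, postemergence to plants 2–18 cm tall (1- to 4-leaf stage). Paddy tests: pots flooded to 3 cm, compound applied into the water, depth held throughout.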

[6] = system: Surinam grass; experiment: Test C pre-/postemergence test; format: in vivo, Brachiaria decumbens
In short: as §2

[7] = system: corn; experiment: Test C pre-/postemergence test; format: in vivo, Zea mays
In short: as §2

[8] = system: crabgrass; experiment: Test C pre-/postemergence test; format: in vivo, Digitaria sanguinalis
In short: as §2

[9] = system: giant foxtail; experiment: Test C pre-/postemergence test; format: in vivo, Setaria faberii
In short: as §2

[10] = system: Goosegrass; experiment: Test C pre-/postemergence test; format: in vivo, Eleusin indica
In short: as §2

[11] = system: johnsongrass; experiment: Test C pre-/postemergence test; format: in vivo, Sorghum halepense
In short: as §2

[12] = system: morningglory; experiment: Test C pre-/postemergence test; format: in vivo, Ipomoea coccinea
In short: as §2

[13] = system: eastern black nightshade; experiment: Test C pre-/postemergence test; format: in vivo, Solanum ptycanthum
In short: as §2

[14] = system: pigweed; experiment: Test C pre-/postemergence test; format: in vivo, Amaranthus retroflexus
In short: as §2

[15] = system: common (oilseed) sunflower; experiment: Test C pre-/postemergence test; format: in vivo, Helianthus annuus
In short: as §2

[16] = system: velvetleaf; experiment: Test C pre-/postemergence test; format: in vivo, Abutilon theophrasti
In short: as §2

[17] = system: umbrella sedge; experiment: Test C flooded paddy test; format: in vivo, Cyperus difformis; conditions: Flood
In short: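 Pots were flooded to 3 cm above the soil surface at treatment, compound applied directly to the paddy water, and that depth held throughout. Plants were kept in a greenhouse for 13 to 15 days, then visually rated against untreated controls.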

[18] = Postemergence, 500 g ai/ha, 0 is no effect, 100 is complete control
[19] = Preemergence, 125 g ai/ha, 0 no effect, 100 complete control
[20] = 62 g ai/ha, Preemergence, scale 0 to 100
[21] = 125 g ai/ha, preemergence, scale 0 (no effect) to 100 (complete control)
[22] = Postemergence, 125 g ai/ha, scale 0 to 100, 0 no effect, 100 complete control
[23] = Postemergence, 250 g ai/ha, scale 0 to 100, 0 no effect, 100 complete control
[24] = Preemergence, 31 g ai/ha, scale 0 to 100 (0 no effect, 100 complete control)
[25] = preemergence, 250 g ai/ha, scale 0 (no effect) to 100 (complete control)
[26] = Postemergence, 62 g ai/ha, scale 0 to 100, 0 no effect, 100 complete control

Cn1nc(C(F)(F)F)c(C[S+]([O-])c2ccc(Cl)c[n+]2[O-])c1OCC(F)(F)F (racemic) [Compound 62]
60: Plant response rating, Wheat ([3]; Postemergence, 125 g ai/ha) | Wheat plant response rating [3, 18] | Plant response rating, Surinam Grass [6, 23] | Plant response rating, Crabgrass, Large [8, 24]
0: Plant response rating (0 to 100), Ryegrass, Italian ([5]; Postemergence, 31 g ai/ha) | Plant response rating (0 to 100), Ryegrass, Italian ([5]; Postemergence, 62 g ai/ha) | Plant response rating (0 to 100), Surinam Grass ([6]; Postemergence, 31 g ai/ha) | Plant response rating (0 to 100), Surinam Grass ([6]; Postemergence, 62 g ai/ha) | Plant response rating, Surinam Grass [6, 22] | Plant response rating (0 to 100), Corn ([7]; Postemergence, 31 g ai/ha) | Plant response rating, Corn [7, 26] | Plant response rating, Corn [7, 22] | Plant response rating (0 to 100), Crabgrass, Large ([8]; Postemergence, 31 g ai/ha) | Plant response rating, Crabgrass, Large [8, 26] | Plant response rating, Crabgrass, Large [8, 22] | Plant response rating (0 to 100), Foxtail, Giant ([9]; Postemergence, 31 g ai/ha) | Plant response rating, Foxtail, Giant [9, 26] | Plant response rating (0 to 100), Goosegrass ([10]; Postemergence, 31 g ai/ha) | Plant response rating, Goosegrass [10, 26] | Plant response rating (0 to 100), Johnsongrass ([11]; Postemergence, 31 g ai/ha) | Plant response rating, Johnsongrass [11, 26] | Plant response rating, Johnsongrass [11, 22] | Plant response rating, Johnsongrass [11, 23] | Plant response rating (0 to 100), Morningglory ([12]; Postemergence, 31 g ai/ha) | Plant response rating, Morningglory [12, 26] | Plant response rating, Morningglory [12, 22] | Plant response rating (0 to 100), Pigweed ([14]; Postemergence, 31 g ai/ha) | Plant response rating (0 to 100), Pigweed ([14]; Postemergence, 62 g ai/ha) | Plant response rating, Pigweed [14, 22] | Plant response rating (0 to 100), Velvetleaf ([16]; Postemergence, 31 g ai/ha) | Plant response rating (0 to 100), Velvetleaf ([16]; Postemergence, 62 g ai/ha) | Plant response rating, Sedge, Umbrella ([17]; 62 g ai/ha, scale 0 to 100 (0 no effect, 100 complete control))
50: Plant response rating, Corn ([4]; Postemergence, 125 g ai/ha) | Plant response rating, Crabgrass, Large [8, 23] | Plant response rating, Goosegrass [10, 23] | Plant response rating, Morningglory [12, 24] | Plant response rating, Sunflower [15, 24]
85: Ryegrass, Italian plant response rating [5, 20]
5: Plant response rating, Pigweed [14, 23] | Plant response rating, Velvetleaf [16, 22]
30: Plant response rating, Morningglory [12, 23]
70: Wheat plant response rating [3, 19] | Corn plant response rating [4, 18] | Plant response rating, Ryegrass, Italian [5, 24] | Plant response rating, Foxtail, Giant [9, 23] | Plant response rating, Foxtail, Giant [9, 24] | Plant response rating, Johnsongrass [11, 24]
10: Plant response rating, Corn [7, 23] | Plant response rating, Goosegrass [10, 22]
75: Sunflower plant response rating [15, 20]
98: Surinam Grass plant response rating [6, 20] | Corn plant response rating [7, 20]
80: Plant response rating, Barnyardgrass ([1]; Postemergence, 125 g ai/ha) | Plant response rating, Crabgrass, Large ([2]; Postemergence, 125 g ai/ha) | Corn plant response rating [4, 19] | Plant response rating, Ryegrass, Italian [5, 22] | Plant response rating, Surinam Grass [6, 24] | Plant response rating, Corn [7, 24] | Crabgrass, Large plant response rating [8, 20] | Plant response rating, Pigweed [14, 24] | Sunflower plant response rating [15, 21] | Sunflower plant response rating [15, 25]
100: Plant response rating, Barnyardgrass ([1]; Preemergence, 500 g ai/ha) | Crabgrass, Large plant response rating [2, 19] | Plant response rating, Crabgrass, Large ([2]; Preemergence, 500 g ai/ha) | Plant response rating, Wheat ([3]; Preemergence, 500 g ai/ha) | Ryegrass, Italian plant response rating [5, 25] | Surinam Grass plant response rating [6, 21] | Surinam Grass plant response rating [6, 25] | Corn plant response rating [7, 21] | Corn plant response rating [7, 25] | Crabgrass, Large plant response rating [8, 21] | Crabgrass, Large plant response rating [8, 25] | Foxtail, Giant plant response rating [9, 20] | Foxtail, Giant plant response rating [9, 21] | Foxtail, Giant plant response rating [9, 25] | Goosegrass plant response rating [10, 20] | Goosegrass plant response rating [10, 21] | Plant response rating, Goosegrass [10, 24] | Goosegrass plant response rating [10, 25] | Johnsongrass plant response rating [11, 20] | Johnsongrass plant response rating [11, 21] | Johnsongrass plant response rating [11, 25] | Morningglory plant response rating [12, 21] | Morningglory plant response rating [12, 25] | Nightshade plant response rating [13, 20] | Nightshade plant response rating [13, 21] | Plant response rating, Nightshade [13, 24] | Nightshade plant response rating [13, 25] | Pigweed plant response rating [14, 20] | Pigweed plant response rating [14, 21] | Pigweed plant response rating [14, 25] | Velvetleaf plant response rating [16, 21] | Velvetleaf plant response rating [16, 25] | Plant response rating, Sedge, Umbrella ([17]; 250 g ai/ha, scale 0 to 100, 0 no effect, 100 complete control, 13 to 15 days)
90: Barnyardgrass plant response rating [1, 18] | Barnyardgrass plant response rating [1, 19] | Crabgrass, Large plant response rating [2, 18] | Plant response rating, Corn ([4]; Preemergence, 500 g ai/ha) | Ryegrass, Italian plant response rating [5, 21] | Plant response rating, Ryegrass, Italian [5, 23] | Morningglory plant response rating [12, 20] | Velvetleaf plant response rating [16, 20]
40: Plant response rating, Foxtail, Giant [9, 22] | Plant response rating, Velvetleaf [16, 23] | Plant response rating, Velvetleaf [16, 24]
